Each block holds one compound with its values, some of them ahead of it.
What was measured:
[1] = Cellular toxicity assay in PBM cells; type: cell-based; settings: human
Method: (§1) The toxicity of the compounds was assessed in Vero, human PBM, CEM (human lymphoblastoid), MT-2, and HepG2 cells, as described previously (see Schinazi R. F., Sommadossi J.-P., Saalmann V., Cannon D. L., Xie M.-Y., Hart G. C., Smith G. A. & Hahn E. F. Antimicrob. Agents Chemother. 1990, 34, 1061-67). Cycloheximide was included as positive cytotoxic control, and untreated cells exposed to solvent were included as negative controls. The cytotoxicity IC50 was obtained from the concentration-response curve using the median effective method described previously (see Chou T.-C. & Talalay P. Adv. Enzyme Regul. 1984, 22, 27-55; Belen'kii M. S. & Schinazi R. F. Antiviral Res. 1994, 25, 1-11).

[2] = Cellular toxicity assay in macrophages; type: cell-based, human; settings: human
[3] = system: HIV; assay: HIV assay in PBM cells; type: cell-based
Method: (§2) PBM cells or macrophages were incubated with various concentrations of antiviral agents for 6 days PBM cells) or […] (macrophages), followed by harvest of supernatants and quantification of extracellular HIV using the RT assay or p24 assays as previously described (Gavegnano and Schinazi et al, 2012, AAC). AZT (positive control), no drug controls, or virus alone were also performed in each assay. Assays were performed in 8 independent experiments. The Chou and Tallalay method was used to calculate the effective inhibitory concentration 50/90 as previously described (Gavegnano and Schinazi et al, 2012, AAC).

[4] = system: HIV; assay: HIV assay in macrophages; type: cell-based; settings: for Antiviral Potency Macrophages - EC50/90: EC50 / Antiviral Potency Macrophages - EC50/90: EC90: Table 5A; for EC50 / EC90: Human immunodeficiency virus 1, Macrophage, Table 5 (Example 8)
Method: as §2

[5] = Bone marrow cytotoxicity, GM lineage (CFU-GM); type: cell-based, human; settings: human, Table 8A, first value of the cell, read-out: Cytotoxicity: MTT IC50, Bone Marrow (GM Lineage)
Method: (§3) Primary human bone marrow mononuclear cells can be obtained commercially from Cambrex Bioscience (Walkersville, MD). CFU-GM assays is carried out using a bilayer soft agar in the presence of 50 units/mL human recombinant granulocyte/macrophage colony-stimulating factor, while BFU-E assays used a […] matrix containing 1 unit/mL erythropoietin (see Sommadossi J P, Carlisle R. Toxicity of 3′-azido-3′-deoxythymidine and 9-(1,3-dihydroxy-2-propoxymethyl) guanine for normal human hepatopoietic progenitor cells in vitro. Antimicrob. Agents Chemother. 1987; 31: 452-454; Sommadossi, JP, Schinazi, RF, Chu, C K, and Xie, M Y. Comparison of cytotoxicity of the (−) and (+) enantiomer of 2′,3′-dideoxy-3′-thiacytidine in normal human bone marrow progenitor cells. Biochem. Pharmacol. 1992; 44:1921-1925). Each experiment can be performed in duplicate in cells from three different donors. AZT is used as a positive control. […] The 50% inhibitory concentration (IC50) can be obtained by least-squares linear regression analysis of the logarithm of drug concentration versus BFU-E survival fractions. Statistical analysis can be performed with Student's t test for independent non-paired samples.

[6] = Bone marrow cytotoxicity, erythroid lineage (BFU-E); type: cell-based, human; settings: human; Table 8A; first value of the cell; read-out: Cytotoxicity: MTT IC50, Bone Marrow (Erythroid Lineage)
Method: as §3

[7] = Cellular toxicity assay in Vero cells; type: cell-based; settings: African green monkey
Method: as §1

[8] = Cellular toxicity assay in Huh7 cells; type: cell-based; settings: human
[9] = Cellular toxicity assay in CEM cells; type: cell-based; settings: human
Method: as §1

[10] = system: Bone Marrow (GM Lineage); assay: Bone marrow cytotoxicity, GM lineage (CFU-GM); type: cell-based, human; settings: Table 8A; slash not defined, head says IC50
Method: as §3

[11] = system: Bone Marrow (Erythroid Lineage); assay: Bone marrow cytotoxicity, erythroid lineage (BFU-E); type: cell-based, human; settings: Table 8A; slash not defined, head says IC50
Method: as §3

[12] = system: Macrophages; assay: Cellular toxicity assay in macrophages; type: cell-based, human; settings: Table 8A; slash not defined, head says IC50
[13] = PBM cells, Table 8, read-out: Cytotoxicity IC50, PBM
[14] = macrophages, Table 8, read-out: Cytotoxicity IC50, Macrophages
[15] = Human immunodeficiency virus 1, PBMC, Table 5A, HIV in PBM cells, read-out: Antiviral Potency PBM Cells - EC50/90: EC50
[16] = primary bone marrow mononuclear cells, GM lineage (CFU-GM)
[17] = PBM cells, Table 8A, MTT, read-out: Cytotoxicity: MTT IC50, PBM
[18] = macrophages, Table 8A, first value of the cell, read-out: Cytotoxicity: MTT IC50, Macrophages
[19] = Vero cells, Table 8A, MTT, read-out: Cytotoxicity: MTT IC50, Vero
[20] = Huh7 cells, Table 8A, MTT, read-out: Cytotoxicity: MTT IC50, Huh7
[21] = CEM lymphoblastoid cells, Table 8A, MTT, read-out: Cytotoxicity: MTT IC50, CEM
[22] = Human immunodeficiency virus 1, PBMC, 144 h, Table 5 (Example 8), HIV in PBM cells, 6 days, read-out: PBM Cells EC50
[23] = Vero cells, Table 8, read-out: Cytotoxicity IC50, Vero
[24] = CEM lymphoblastoid cells, Table 8, read-out: Cytotoxicity IC50, CEM
[25] = Table 8A, MTT, read-out: Cytotoxicity: MTT IC50, PBM
[26] = Table 8A, first value of the cell, read-out: Cytotoxicity: MTT IC50, Macrophages
[27] = Table 8A, MTT, read-out: Cytotoxicity: MTT IC50, Vero
[28] = Table 8A, MTT, read-out: Cytotoxicity: MTT IC50, Huh7
[29] = Table 8A, MTT, read-out: Cytotoxicity: MTT IC50, CEM
[30] = Table 5A, HIV in PBM cells, read-out: Antiviral Potency PBM Cells - EC50/90: EC50

Compound: CC(=O)c1ccc2c(c1)Nc1ccccc1S2 [drawing 63]
IC50 [1, 13]: > 100 µM
IC50 [2, 14]: > 10 µM

Compound: C#C[C@]1(COP(=O)(N[C@@H](C)C(=O)OC(C)C)Oc2ccccc2)O[C@@H](n2ccc(=O)[nH]c2=O)[C@H](O)[C@@H]1O (some centres unmarked) [drawing 77]
EC50 ([3]; Human immunodeficiency virus 1, PBMC, read-out: Antiviral Potency PBM Cells - EC50/90: EC50): > 10 µM
Antiviral Potency Macrophages - EC50/90: EC50 [4]: 0.1 ± 6 nM
Antiviral Potency Macrophages - EC50/90: EC90 [4]: 9 ± 7 nM

EC50 [3, 15]: 1.8 µM
Antiviral Potency Macrophages - EC50/90: EC50 [4]: 1 ± 2 nM
Antiviral Potency Macrophages - EC50/90: EC90 [4]: 20 ± 10 nM
Compound: C#C[C@]1(CO)O[C@@H](n2cnc3c(N)nc(F)nc32)[C@H](O)[C@@H]1O [drawing 79]

Compound: C#C[C@]1(CO)O[C@@H](n2ccc(=O)[nH]c2=O)[C@H](O)[C@@H]1O [drawing 65]
IC50 [5, 16]: > 100 µM
IC50 [1, 17]: > 100 µM
IC50 [6]: > 100 µM
IC50 [2, 18]: > 100 µM
IC50 [7, 19]: > 100 µM
IC50 [8, 20]: > 100 µM
IC50 [9, 21]: > 100 µM

Compound: C#C[C@]1(CO)O[C@@H](n2cnc3c(N)nc(F)nc32)[C@H](O)[C@@H]1O [drawing 68]
IC50 [5, 16]: 0.4 µM
Bone Marrow (GM Lineage), second value after the slash [10]: 12.7 µM
IC50 [1, 17]: 2.2 µM
Bone Marrow (Erythroid Lineage), second value after the slash [11]: 5.4 µM
IC50 [6]: 0.7 µM
IC50 [2, 18]: 3.2 ± 0.3 µM
IC50 [7, 19]: 12.9 µM
IC50 [8, 20]: 11.4 µM
IC50 [9, 21]: 1.9 µM

EC90 ([3]; Human immunodeficiency virus 1, PBMC, 144 h, Table 5 (Example 8), HIV in PBM cells, 6 days): 19.1 µM
EC50 [3, 22]: 3.2 µM
EC50 [4]: 0.001 µM
EC90 [4]: 20 nM
Compound: C#C[C@]1(CO)O[C@@H](n2cnc3c(N)nc(F)nc32)C(O)C1O (some centres unmarked)

Compound: C#C[C@]1(CO)O[C@@H](n2cnc3c(N)nc(F)nc32)C[C@@H]1O [drawing 60]
IC50 [1, 13]: 1.1 µM
IC50 [2, 14]: 2.4 µM
IC50 [7, 23]: ≥ 100 µM
IC50 [9, 24]: 6.8 µM

Compound: C#C[C@]1(CO)O[C@@H](n2cnc3c(N)nc(F)nc32)[C@H](O)[C@@H]1O [drawing 61]
IC50 [1, 13]: 3.2 µM
IC50 [2, 14]: 0.7 µM
IC50 [7, 23]: > 100 µM
IC50 [9, 24]: 52 µM

EC50 [3, 22]: > 100 µM
EC50 [4]: 0.03 µM
EC90 [4]: 300 nM
Compound: CN(C)c1cccc(-c2c3c(=O)n(-c4ccccc4Cl)[nH]c3cc(=O)n2C)c1 [drawing 73]

Compound: O=c1c2cc(F)ccc2sn1-c1ccc2c(c1)OCO2 [drawing 70]
IC50 ([1]; PBM cells, Table 8B, MTS (head line), read-out: Cytotoxicity: IC50, PBM): 58.3 ± 10.9 µM
IC50 ([7]; Vero cells, Table 8B, MTT (head line), read-out: Cytotoxicity: IC50, Vero): 20.1 µM
IC50 ([8]; Huh7 cells, Table 8B, MTT/MTS (head line), read-out: Cytotoxicity: IC50, Huh7): 379 ± 19.2 µM
IC50 ([9]; CEM lymphoblastoid cells, Table 8B, MTT (head line), read-out: Cytotoxicity: IC50, CEM): 3.7 µM

EC50 [3, 22]: > 100 µM
EC50 [4]: 0.02 µM
EC90 [4]: 200 nM
Compound: CC(=O)c1ccc2c(c1)Nc1ccccc1S2 [drawing 74]

Compound: CN(C)c1cccc(-c2c3c(=O)n(-c4ccccc4Cl)[nH]c3cc(=O)n2C)c1 [drawing 62]
IC50 [1, 13]: > 100 µM
IC50 [2, 14]: > 10 µM

Compound: C#C[C@]1(COP(=O)(N[C@@H](C)C(=O)OC(C)C)Oc2ccccc2)O[C@@H](n2ccc(=O)[nH]c2=O)[C@H](O)[C@@H]1O (some centres unmarked) [drawing 66]
IC50 [5]: > 100 µM
IC50 [1, 25]: > 100 µM
IC50 [6]: > 100 µM
IC50 [2, 26]: > 100 µM
IC50 [7, 27]: > 100 µM
IC50 [8, 28]: > 100 µM
IC50 [9, 29]: > 100 µM

EC50 [3, 15]: > 10 µM
Antiviral Potency Macrophages - EC50/90: EC50 [4]: 16600 ± 3200 nM
Antiviral Potency Macrophages - EC50/90: EC90 [4]: > 100000 nM
Compound: C#C[C@]1(CO)O[C@@H](n2ccc(=O)[nH]c2=O)[C@H](O)[C@@H]1O [drawing 76]

Compound: C#C[C@]1(CO)O[C@@H](n2cnc3c(N)nc(F)nc32)C[C@@H]1O [drawing 67]
IC50 [5, 16]: 1.9 µM
Bone Marrow (GM Lineage), second value after the slash [10]: 22.4 µM
IC50 [1, 17]: 2.9 µM
Bone Marrow (Erythroid Lineage), second value after the slash [11]: 8.6 µM
IC50 [6]: 2.4 µM
Macrophages, second value after the slash [12]: 9.2 µM
IC50 [2, 18]: 21 µM
IC50 [7, 19]: 3.2 µM
IC50 [9, 21]: 1.7 µM

Compound: COc1ccc(NC(=O)Nc2ccc(N)cc2)cc1 [drawing 64]
IC50 [1, 13]: > 100 µM
IC50 [2, 14]: > 10 µM

Antiviral Potency PBM Cells - EC50/90: EC90 ([3]; Table 5A, HIV in PBM cells): 12.9 µM
EC50 [3, 30]: 0.7 µM
Antiviral Potency Macrophages - EC50/90: EC50 [4]: 9 nM
Antiviral Potency Macrophages - EC50/90: EC90 [4]: 300 nM
Compound: O=c1c2cc(F)ccc2sn1-c1ccc2c(c1)OCO2 [drawing 81]

EC50 [3, 22]: > 100 µM
EC50 [4]: 0.001 µM
EC90 [4]: 100 nM
Compound: COc1ccc(NC(=O)Nc2ccc(N)cc2)cc1 [drawing 75]

Antiviral Potency PBM Cells - EC50/90: EC90 ([3]; Table 5A, HIV in PBM cells): 0.0000001 µM
EC50 [3, 30]: 0.000000001 µM
Antiviral Potency Macrophages - EC50/90: EC50 [4]: 3e-05 nM
Antiviral Potency Macrophages - EC50/90: EC90 [4]: 7e-06 nM
Compound: C#C[C@]1(CO)O[C@@H](n2cnc3c(N)nc(F)nc32)C[C@@H]1O [drawing 78]

Compound: C[C@@H]1C[C@@H]([C@H](O)CC2CC(=O)NC(=O)C2)C(=O)[C@@H](C)C1
IC50 [1, 25]: 2.5 µM
IC50 [2, 26]: 6.9 ± 0.9 µM
IC50 [7, 27]: 0.7 µM
IC50 [8, 28]: 0.9 µM
IC50 [9, 29]: 0.06 µM

EC90 [4]: 0.01 nM
Compound: C#C[C@]1(CO)O[C@@H](n2cnc3c(N)nc(F)nc32)CC1O (some centres unmarked)
